We go through seven compounds from patent publication US9550792B2, “Polycyclic substituted pyrazole kinase activity inhibitors and use thereof” (priority 2013, dated 2017).

One series has as its target T1, CDK2/A (Homo sapiens, UniProt P24941).
T1 construct: purchased
Put plainly: Inhibitory activity to CDK2 (FRET). Type of series: biochemical. The following applies: for inhibition at 1 µM: read-out: CDK2 inhibition % (1 × 10^−6 mol/L). As to the method:
CDK2/A was purchased in the form of a kit or obtained through purification.
Procedures: CDK2/A is diluted to a suitable concentration with kinase diluent. The kinase reaction mixture contains CDK2/A, peptide substrate, HEPES (pH7.5), BRIJ-35, MgCl2 and EDTA. CDK2 phospho-peptide substrate is used as the control of 100% phosphorylation and ATP-free as the control of 0% phosphorylation. After 1 h, the diluted Development Reagent A is added into the reaction system. Then the reaction is allowed to proceed for 1 h and then quenched with Stop Reagent. […] The inhibitions of the tested compounds are calculated according to the formula.

Another series deals with lung cancer cell H1299. As to the kind of experiment: Anti-tumor activity in vitro, MTT method. Format: cell-based. As to conditions: read-out: H1299 (IC50/μM).
The target in a further series is T2, Aurora A (Homo sapiens, UniProt O14965).
T2 construct: purchased
T2 sequence (O14965 1-403): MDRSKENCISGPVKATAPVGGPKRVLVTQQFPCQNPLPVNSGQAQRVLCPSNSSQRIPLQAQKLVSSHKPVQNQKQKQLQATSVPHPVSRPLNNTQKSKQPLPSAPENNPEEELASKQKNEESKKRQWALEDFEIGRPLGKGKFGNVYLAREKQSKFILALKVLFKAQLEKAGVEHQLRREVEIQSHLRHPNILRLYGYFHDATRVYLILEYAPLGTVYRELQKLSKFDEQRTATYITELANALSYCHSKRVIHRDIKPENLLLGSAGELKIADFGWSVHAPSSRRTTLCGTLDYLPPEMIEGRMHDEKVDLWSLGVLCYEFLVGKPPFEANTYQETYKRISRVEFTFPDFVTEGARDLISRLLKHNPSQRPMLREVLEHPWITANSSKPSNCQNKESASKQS
Put plainly: Inhibitory activity to Aurora A (FRET). Type of series: biochemical. The following applies: for inhibition at 1 µM: read-out: Aurora A inhibition % (1 × 10^−6 mol/L). As to the method:
The inhibitory activities of the synthesized compounds for Aurora A is determined by fluorescence resonance energy transfer (FRET) and were compared with the positive control drug so as to screen the compounds with better activities. Aurora A was purchased in the form of a kit or obtained through purification. Procedures: Aurora A is diluted to a suitable concentration with kinase diluent. The kinase reaction mixture contains Aurora A, peptide substrate, HEPES (pH7.5), BRIJ-35, MgCl2 and EDTA. Aurora A phospho-peptide substrate is used as the control of 100% phosphorylation and ATP-free as the control of 0% phosphorylation. After 1 h, the diluted Development Reagent A is added into the reaction system. Then the reaction is allowed to proceed for 1 h and then quenched with Stop Reagent. The excitation wavelength is 400 nm and the fluorescence intensity is detected at 445 nm (coumarin) and 520 nm (fluorescein). The inhibitions of the tested compounds are calculated according to the formula.

The test system of series [1] is colon cancer cell line HCT116. Put plainly: Anti-tumor activity in vitro, MTT method. Format: cell-based. As to conditions: read-out: HCT-116 (IC50/μM). A general note: Tetrazolium assays rely on reduction of a dye to a coloured formazan, in cell work by metabolically active cells.
Series [2] concerns liver cancer cell line 7721. Put plainly: Anti-tumor activity in vitro, MTT method. Format: cell-based. The following applies: 48 h, read-out: 7721 (IC50/μM).
Series [3] has as its system Candida albicans - ATCC 36082. As to the kind of experiment: Antifungal activity, modified broth microdilution. Format: cell-based. The following applies: Candida albicans, ATCC36082; 48 hours at 35, approximately 50% reduction of growth. As to the method:
(§1) The test microorganisms are maintained on Sabourahd Dextrose Agar slant at 4[…]. Singlet suspension of each microorganism is prepared by growing the yeast overnight at 27[…] on a rotating drum in yeast-nitrogen base broth (YNB) with amino acids (Difco, Detroit, Mich.), (pH 7.0) and 0.05 morpholine propanesulphonic acid (MOPS). […] The activity of the test compound is determined using a modified broth microdilution technique. […] Well 12 serves as a growth control. […] Inoculated plate is incubated for 48 hours at 35 °C. […] Minimal Cytolytic Concentration (MCC) is determined by subculturing all wells from the 96-well plate onto a Sabourahd Dextrose Agar (SDA) plate, incubating for 1-2 days at 35 °C, and then checking viability.
(In broth dilution the organism is exposed to a series of concentrations in liquid medium.)

The subject of a further series is Cryptococcus neoformans. Put plainly: Antifungal activity, modified broth microdilution. As to conditions: Cryptococcus neoformans; 48 hours at 35, approximately 50% reduction of growth. Format: cell-based. As to the method:
as §1

The next series relates to Candida parapsilosis. As to the kind of experiment: Antifungal activity, modified broth microdilution. Format: cell-based. As to conditions: Lodderomyces parapsilosis; 48 hours at 35, approximately 50% reduction of growth. How it is done: as §1
A further series relates to Candida tropicalis. As to the kind of experiment: Antifungal activity, modified broth microdilution. Type of series: cell-based. As to conditions: Candida tropicalis; 48 hours at 35, approximately 50% reduction of growth. As to the method:
as §1

The next series relates to Phytophthora infestans. Format: in vivo.
Setting [4] is: Homo sapiens, NCI-H1299, MTT, 48 h.
Setting [5] is: Homo sapiens, HCT-116, MTT, 48 h, first cell table.

Structures are written as SMILES. Values after ≈ are worked out from the molar mass of the structure shown. Read-outs that look alike come from different tables or passages of the source.

As for `Cc1c[nH]c2ncnc(Nc3c[nH]nc3C(=O)Nc3ccc(CN4CCOCC4)cc3)c12` [Compound I-16, 4-(4-(5-methyl-7H-pyrrolo[2,3-d]pyrimidinyl)amino)-N-(4-((4-morpholinyl)methyl)phenyl)-1H-3-pyrazolecarboxamide], the “CDK2 inhibition % (1 × 10^−6 mol/L)” value on CDK2/A (1 × 10^−6 mol/L) was determined as 50.49%. The IC50 worked out at 89 µM in the series on lung cancer cell H1299 (MTT, 48 h); 32.3 µM in [1] (MTT, 48 h, first cell table); 54.2 µM in series [2] (MTT). Also, the “Aurora A inhibition % (1 × 10^−6 mol/L)” value at Aurora A (1 × 10^−6 mol/L) stood at 56.18%.

As usually defined, the melting point is the temperature of the solid-liquid transition. In turn, `CN1CCN(Cc2ccc(NC(=O)c3n[nH]cc3Nc3ccnc4ccoc34)cc2)CC1` [Compound I-39, 4-(7-furo[3,2-b]pyridylamino)-N-(4-((4-methyl-1-piperazinyl)methyl)phenyl)-1H-3-pyrazolecarboxamide] gave a melting point of 268 to 270 °C. At CDK2/A, the inhibition at 1 µM stood at 37.6%. Besides, the IC50 in the series with lung cancer cell H1299 (setting [4]) was more than 200 µM. For the same compound, on Aurora A, the inhibition at 1 µM was 42.1%. Further, the IC50 in series [1] (setting [5]) was more than 200 µM. Further, the IC50 in series [2] (MTT) is more than 200 µM.

For the compound `O=C(Nc1c[nH]nc1-c1nc2ccc(CN3CCOCC3)cc2[nH]1)NC1CC1` [AT-9283, reference compound], the results for the inhibition at 1 µM on CDK2/A and on Aurora A were 39.7% and 77.4%, respectively. For the same compound, the IC50 worked out at 10.8 µM in the series with lung cancer cell H1299 (setting [4]), 21.2 µM in series [1] (setting [5]) and 61.2 µM in series [2] (MTT).

One may read the MIC as the lowest concentration found to suppress growth. `CN1CCN(Cc2ccc(NC(=O)c3n[nH]cc3Nc3ncnc4ccoc34)cc2)CC1` [Compound I-23, 4-(4-furo[3,2-d]pyrimidinylamino)-N-(4-((4-methyl-1-piperazinyl)methyl)phenyl)-1H-3-pyrazolecarboxamide] yielded a melting point of 277 to 279 °C. At CDK2/A, the inhibition at 1 µM worked out at 60.6%. On Aurora A, the inhibition at 1 µM stood at 59.7%. In series [3], the lowest concentration to inhibit growth (MIC) was 2.92 µg/mL (≈ 6.75 µM). In the series on Cryptococcus neoformans, this compound registered an MIC of 5.82 µg/mL (≈ 13.5 µM). The compound also gave an MIC in the series on Candida parapsilosis of 4.32 µg/mL (≈ 9.99 µM). For the same compound, the MIC against Candida tropicalis was found to be 3.24 µg/mL (≈ 7.49 µM). Also, in the series on Phytophthora infestans (0.0001 (unit not given)), the “Severity of tomato leaf blight” value is recorded as “+++ (40-60% blight)”. Moreover, in the series with Phytophthora infestans (0.001 (unit not given)), the “Severity of tomato leaf blight” value is recorded as “++ (15-40% blight)”. Also, the “Severity of tomato leaf blight” value in the series with Phytophthora infestans (0.01 (unit not given)) was “−”. In addition, the “Severity of tomato leaf blight” value in the series with Phytophthora infestans (0.1 (unit not given)) is listed as “−”.

`CN1CCN(Cc2ccc(NC(=O)c3n[nH]cc3Nc3ncnc4ccsc34)cc2)CC1` [Compound I-9, 4-(4-thieno[3,2-d]pyrimidinylamino)-N-(4-((4-methyl-1-piperazinyl)methyl)phenyl)-1H-3-pyrazole carboxamide] had a melting point of more than 280 °C. For the same compound, on CDK2/A, the inhibition at 1 µM is 65%. In addition, on Aurora A, the inhibition at 1 µM is 67.6%. In addition, in [3], the MIC worked out at 12.7 µg/mL (≈ 28.4 µM). Also, the MIC against Cryptococcus neoformans stood at 15.6 µg/mL (≈ 34.7 µM). In the series with Candida parapsilosis, the MIC amounted to 8.7 µg/mL (≈ 19.4 µM). This compound displayed an MIC in the series on Candida tropicalis of 10.7 µg/mL (≈ 23.9 µM). The “Severity of tomato leaf blight” value in the series with Phytophthora infestans (0.0001 (unit not given)) was “++ (15-40% blight)”. In addition, in the series on Phytophthora infestans (0.001 (unit not given)), the “Severity of tomato leaf blight” value is reported as “++ (15-40% blight)”. Further, the “Severity of tomato leaf blight” value in the series with Phytophthora infestans (0.01 (unit not given)) is “−”. For the same compound, the “Severity of tomato leaf blight” value in the series with Phytophthora infestans (0.1 (unit not given)) was “−”.

`O=C(Nc1ccc(CN2CCOCC2)cc1)c1n[nH]cc1Nc1ncnc2occc12` [Compound I-22, 4-(4-furo[2,3-d]pyrimidinylamino)-N-(4-((4-morpholinyl)methyl)phenyl)-1H-3-pyrazolecarboxamide] had a melting point of more than 280 °C. Besides, on CDK2/A, the inhibition at 1 µM was determined as 66.3%. Moreover, the IC50 in the series on lung cancer cell H1299 (setting [4]) came out at 10.3 µM. Also, the inhibition at 1 µM on Aurora A came out at 48.5%. The IC50 in series [1] (setting [5]) came to 8.63 µM. For the same compound, in series [2] (MTT), the IC50 stood at 18.1 µM.

The compound `CN1CCN(Cc2ccc(NC(=O)c3n[nH]cc3Nc3nccc4ccsc34)cc2)CC1` [Compound I-29, 4-(7-thieno[2,3-c]pyridylamino)-N-(4-((4-methyl-1-piperazinyl)methyl)phenyl)-1H-3-pyrazolecarboxamide] had a melting point of 274 to 276 °C. Also, at CDK2/A, the inhibition at 1 µM amounted to 76.2%. Further, the IC50 in the series with lung cancer cell H1299 (Homo sapiens, NCI-H1299, 48 h) worked out at 3.84 µM. The inhibition at 1 µM at Aurora A came to 64.4%. In [3], the MIC came out at 2.73 µg/mL (≈ 6.1 µM). In the series with Cryptococcus neoformans, this compound gave an MIC of 7.81 µg/mL (≈ 17.4 µM). In the series with Candida parapsilosis, the MIC was 6.47 µg/mL (≈ 14.5 µM). In the series on Candida tropicalis, this compound displayed an MIC of 4.21 µg/mL (≈ 9.41 µM). Further, the IC50 in [1] (Homo sapiens, HCT-116, 48 h) was determined as 0.26 µM. Also, the “Severity of tomato leaf blight” value in the series with Phytophthora infestans (0.0001 (unit not given)) is on record as “+++ (40-60% blight)”. For the same compound, the “Severity of tomato leaf blight” value in the series with Phytophthora infestans (0.001 (unit not given)) is “++ (15-40% blight)”. Moreover, the “Severity of tomato leaf blight” value in the series with Phytophthora infestans (0.01 (unit not given)) is “+ (0-15% blight)”. Besides, the “Severity of tomato leaf blight” value with Phytophthora infestans (0.1 (unit not given)) was “−”. In addition, the IC50 in series [2] is 4.95 µM.
